Measurements as given in ChEMBL document CHEMBL5728127, “Diarylalkanes as potent inhibitors of binuclear enzymes” (2020).

Target: T1, Polyphenol oxidase 1 (Agaricus bisporus, UniProt Q00024)
T1 sequence (Q00024 whole entry): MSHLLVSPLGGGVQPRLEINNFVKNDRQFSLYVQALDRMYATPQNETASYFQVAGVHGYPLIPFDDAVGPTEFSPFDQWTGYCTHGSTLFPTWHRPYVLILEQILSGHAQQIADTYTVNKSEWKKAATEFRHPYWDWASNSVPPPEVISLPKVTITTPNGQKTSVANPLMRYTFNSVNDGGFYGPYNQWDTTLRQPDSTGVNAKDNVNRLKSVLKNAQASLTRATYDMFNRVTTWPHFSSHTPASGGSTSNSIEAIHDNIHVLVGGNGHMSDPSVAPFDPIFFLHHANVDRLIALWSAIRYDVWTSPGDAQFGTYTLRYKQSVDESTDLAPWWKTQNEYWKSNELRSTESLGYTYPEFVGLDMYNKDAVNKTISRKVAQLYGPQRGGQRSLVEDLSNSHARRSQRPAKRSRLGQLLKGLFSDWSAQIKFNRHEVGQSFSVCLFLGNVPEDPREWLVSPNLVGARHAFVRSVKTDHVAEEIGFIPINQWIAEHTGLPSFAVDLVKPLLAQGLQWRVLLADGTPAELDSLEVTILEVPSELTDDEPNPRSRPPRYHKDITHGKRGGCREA
Test: Using this method, the conversion of L-Dopa, a substrate of tyrosinase, into dopachrome is followed by monitoring absorption at 450 nm. Tyrosinase was prepared in 50 mM potassium phosphate buffer, pH 6.8 (assay buffer) at 2000 U/ml and stored at −20° C. in 1 ml aliquots prior to use. For use in assays, stock enzyme solutions were thawed and diluted to 200 U/ml with assay buffer. A 2 mM working solution of substrate, L-DOPA, was prepared in assay buffer for each assay. Samples were dissolved in 10% DMSO (0.5 ml) and diluted to 5 ml with assay buffer. The reaction mixture consisted of 0.050 ml 2 mM L-DOPA, 0.050 ml 200 U/ml mushroom tyrosinase and 0.050 ml inhibitor. Reaction volume was adjusted to 200 μl with assay buffer. […] Average velocity was determined from linear enzyme rate as measured by change in absorbance (ΔA450) at 450 nm per minute.

Compound | IC50 [µM]
CC(Cc1ccc(O)c(O)c1)C(C)Cc1ccc(O)c(O)c1 (stereo unspecified) [NORDIHYDROGUAIARETIC ACID] | 700
COc1ccc(CCC(O)c2cc(OC)ccc2O)c(OC)c1 (stereo unspecified) | 1000
COc1ccc(CC(O)c2ccc(O)cc2O)cc1 (stereo unspecified) | 77
COc1ccc(CCCc2ccc(O)cc2O)c(OC)c1C | 0.24
Oc1ccc(CCC(O)c2ccc(O)cc2)cc1 (stereo unspecified) | 305
COc1ccc(O)c(CCCc2ccc(O)cc2OC)c1 | 24
COc1cc(O)c(C(O)CCc2ccc(O)c(OC)c2)c(OC)c1 (stereo unspecified) | 375
Oc1ccc(C(O)CCc2ccccc2O)c(O)c1 (stereo unspecified) | 0.7
COc1ccc(CCC(O)c2c(O)cc(O)cc2O)cc1O (stereo unspecified) | 1200
Oc1ccc(C(O)Cc2ccc(Cl)cc2Cl)c(O)c1 (stereo unspecified) | 1000
Nc1ccc(CCC(O)c2c(O)cc(O)cc2O)cc1 (stereo unspecified) | 8
